Source: US10870647B2, “Imidazopyridine derivative, method for preparing same, and pharmaceutical composition containing same as active ingredient for preventing or treating cancer” (DAEGU-GYEONGBUK MEDICAL INNOVATION FOUNDATION, priority 2016, dated 2020)
Read-outs that look alike come from different tables or passages of the source.

Key:
Assay in all cases: Kinase selectivity, scanMAX Kinase assay panel (DiscoverX), % control at 1 uM
Type in all cases: binding
[1] = molecular target: T1, scanMAX Kinase assay panel (Homo sapiens, UniProt O14757); conditions: CHEK1; 1 uM; read-out: Percent Control (%)
T1 construct: purchased DiscoverX
T1 sequence (O14757 1-476): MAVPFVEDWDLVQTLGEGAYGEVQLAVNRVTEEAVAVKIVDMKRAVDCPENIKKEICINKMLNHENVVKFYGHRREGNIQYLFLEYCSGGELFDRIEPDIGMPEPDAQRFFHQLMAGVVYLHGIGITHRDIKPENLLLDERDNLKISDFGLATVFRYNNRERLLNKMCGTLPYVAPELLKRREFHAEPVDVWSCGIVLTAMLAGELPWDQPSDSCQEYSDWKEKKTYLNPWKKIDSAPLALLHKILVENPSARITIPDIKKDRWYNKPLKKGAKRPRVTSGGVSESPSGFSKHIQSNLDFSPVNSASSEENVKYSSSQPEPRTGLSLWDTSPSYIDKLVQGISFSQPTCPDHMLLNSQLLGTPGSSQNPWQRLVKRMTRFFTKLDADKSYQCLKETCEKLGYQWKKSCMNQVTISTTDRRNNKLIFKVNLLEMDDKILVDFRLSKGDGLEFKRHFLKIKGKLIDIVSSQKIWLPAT
Summary of the method: (§1)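 Read-out is percent of control, derived from the signal with compound relative to positive and negative controls: (compound − positive)/(negative − positive) × 100. Each enzyme received test drug at 1 uM in DMSO, and values under 35% count as active.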

[2] = molecular target: T2, scanMAX Kinase assay panel (Homo sapiens, UniProt O75676); conditions: 1 uM, read-out: Percent Control (%)
T2 construct: purchased DiscoverX
T2 sequence (O75676 whole entry): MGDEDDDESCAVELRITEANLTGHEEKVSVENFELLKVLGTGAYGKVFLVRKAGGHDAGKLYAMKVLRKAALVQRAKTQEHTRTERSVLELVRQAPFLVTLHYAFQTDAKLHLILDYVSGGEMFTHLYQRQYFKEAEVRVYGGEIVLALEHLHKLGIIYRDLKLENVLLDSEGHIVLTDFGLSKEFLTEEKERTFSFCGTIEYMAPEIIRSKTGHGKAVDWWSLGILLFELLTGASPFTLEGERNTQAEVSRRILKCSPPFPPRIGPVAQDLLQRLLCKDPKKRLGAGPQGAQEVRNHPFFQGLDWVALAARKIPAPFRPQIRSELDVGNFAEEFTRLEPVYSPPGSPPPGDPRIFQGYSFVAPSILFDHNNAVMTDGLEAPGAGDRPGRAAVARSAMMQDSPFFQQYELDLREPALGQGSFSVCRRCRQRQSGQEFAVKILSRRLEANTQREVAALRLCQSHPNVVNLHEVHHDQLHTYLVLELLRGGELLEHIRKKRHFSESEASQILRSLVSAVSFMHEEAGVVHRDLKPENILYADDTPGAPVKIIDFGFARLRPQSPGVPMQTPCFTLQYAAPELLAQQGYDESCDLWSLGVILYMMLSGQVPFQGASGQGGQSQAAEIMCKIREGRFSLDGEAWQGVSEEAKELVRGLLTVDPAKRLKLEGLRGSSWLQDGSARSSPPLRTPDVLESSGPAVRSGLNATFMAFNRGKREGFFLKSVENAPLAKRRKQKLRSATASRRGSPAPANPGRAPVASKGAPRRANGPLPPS
Summary of the method: as §1

[3] = molecular target: T3, scanMAX Kinase assay panel (Homo sapiens, UniProt P42336, E545A); conditions: PIK3CA (E545A); 1 uM; read-out: Percent Control (%)
T3 construct: purchased DiscoverX
T3 sequence (P42336 whole entry E545A): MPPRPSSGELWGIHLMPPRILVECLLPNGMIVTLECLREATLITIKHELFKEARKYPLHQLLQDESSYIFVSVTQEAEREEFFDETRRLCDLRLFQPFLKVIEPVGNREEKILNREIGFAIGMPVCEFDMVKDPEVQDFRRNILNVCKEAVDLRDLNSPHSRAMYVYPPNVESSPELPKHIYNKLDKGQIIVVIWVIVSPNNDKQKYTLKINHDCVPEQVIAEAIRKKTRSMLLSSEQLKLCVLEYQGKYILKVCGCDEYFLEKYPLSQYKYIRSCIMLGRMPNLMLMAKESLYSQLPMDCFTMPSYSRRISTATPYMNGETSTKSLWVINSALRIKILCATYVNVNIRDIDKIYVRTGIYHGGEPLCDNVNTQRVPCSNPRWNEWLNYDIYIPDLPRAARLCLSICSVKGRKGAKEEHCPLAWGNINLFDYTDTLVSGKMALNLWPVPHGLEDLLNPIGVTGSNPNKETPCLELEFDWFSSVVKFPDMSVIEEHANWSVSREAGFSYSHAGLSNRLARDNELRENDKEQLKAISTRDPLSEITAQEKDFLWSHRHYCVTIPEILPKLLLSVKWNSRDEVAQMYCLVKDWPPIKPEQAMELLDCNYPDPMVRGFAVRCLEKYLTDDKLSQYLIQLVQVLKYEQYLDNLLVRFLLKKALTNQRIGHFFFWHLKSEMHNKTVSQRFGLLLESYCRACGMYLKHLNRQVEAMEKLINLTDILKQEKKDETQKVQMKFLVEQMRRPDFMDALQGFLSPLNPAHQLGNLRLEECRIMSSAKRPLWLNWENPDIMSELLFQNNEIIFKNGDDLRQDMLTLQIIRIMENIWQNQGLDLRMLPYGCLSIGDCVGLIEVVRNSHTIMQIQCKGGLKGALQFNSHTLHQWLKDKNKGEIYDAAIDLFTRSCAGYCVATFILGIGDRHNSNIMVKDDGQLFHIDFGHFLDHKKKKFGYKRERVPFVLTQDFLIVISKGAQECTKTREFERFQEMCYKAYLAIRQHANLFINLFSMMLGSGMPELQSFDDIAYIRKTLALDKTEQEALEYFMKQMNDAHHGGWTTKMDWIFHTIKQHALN
Summary of the method: as §1

[4] = molecular target: T4, scanMAX Kinase assay panel (Homo sapiens, UniProt P42336, E545K); conditions: PIK3CA (E545K); 1 uM; read-out: Percent Control (%)
T4 construct: purchased DiscoverX
T4 sequence (P42336 whole entry E545K): as the sequence (P42336 whole entry E545A) above, with A545K counted along it
Summary of the method: as §1

[5] = molecular target: T5, scanMAX Kinase assay panel (Homo sapiens, UniProt P51956); conditions: NEK3; 1 uM; read-out: Percent Control (%)
T5 construct: purchased DiscoverX
T5 sequence (P51956 1-506): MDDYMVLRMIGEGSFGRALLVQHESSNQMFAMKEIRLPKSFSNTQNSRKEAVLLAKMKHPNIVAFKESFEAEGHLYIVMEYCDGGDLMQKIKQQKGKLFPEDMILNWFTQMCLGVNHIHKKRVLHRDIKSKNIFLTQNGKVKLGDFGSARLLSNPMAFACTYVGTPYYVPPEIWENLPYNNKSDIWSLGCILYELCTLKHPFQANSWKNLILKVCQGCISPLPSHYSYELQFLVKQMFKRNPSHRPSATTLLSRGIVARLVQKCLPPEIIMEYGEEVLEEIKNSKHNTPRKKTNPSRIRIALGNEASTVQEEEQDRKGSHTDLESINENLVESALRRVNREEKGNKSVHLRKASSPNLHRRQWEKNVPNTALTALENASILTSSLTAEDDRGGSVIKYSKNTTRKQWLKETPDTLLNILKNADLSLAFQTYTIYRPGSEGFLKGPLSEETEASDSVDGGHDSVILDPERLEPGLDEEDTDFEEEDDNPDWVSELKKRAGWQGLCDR
Summary of the method: as §1

[6] = molecular target: T6, scanMAX Kinase assay panel (Homo sapiens, UniProt P57059); conditions: SIK; 1 uM; read-out: Percent Control (%)
T6 construct: purchased DiscoverX
T6 sequence (P57059 whole entry): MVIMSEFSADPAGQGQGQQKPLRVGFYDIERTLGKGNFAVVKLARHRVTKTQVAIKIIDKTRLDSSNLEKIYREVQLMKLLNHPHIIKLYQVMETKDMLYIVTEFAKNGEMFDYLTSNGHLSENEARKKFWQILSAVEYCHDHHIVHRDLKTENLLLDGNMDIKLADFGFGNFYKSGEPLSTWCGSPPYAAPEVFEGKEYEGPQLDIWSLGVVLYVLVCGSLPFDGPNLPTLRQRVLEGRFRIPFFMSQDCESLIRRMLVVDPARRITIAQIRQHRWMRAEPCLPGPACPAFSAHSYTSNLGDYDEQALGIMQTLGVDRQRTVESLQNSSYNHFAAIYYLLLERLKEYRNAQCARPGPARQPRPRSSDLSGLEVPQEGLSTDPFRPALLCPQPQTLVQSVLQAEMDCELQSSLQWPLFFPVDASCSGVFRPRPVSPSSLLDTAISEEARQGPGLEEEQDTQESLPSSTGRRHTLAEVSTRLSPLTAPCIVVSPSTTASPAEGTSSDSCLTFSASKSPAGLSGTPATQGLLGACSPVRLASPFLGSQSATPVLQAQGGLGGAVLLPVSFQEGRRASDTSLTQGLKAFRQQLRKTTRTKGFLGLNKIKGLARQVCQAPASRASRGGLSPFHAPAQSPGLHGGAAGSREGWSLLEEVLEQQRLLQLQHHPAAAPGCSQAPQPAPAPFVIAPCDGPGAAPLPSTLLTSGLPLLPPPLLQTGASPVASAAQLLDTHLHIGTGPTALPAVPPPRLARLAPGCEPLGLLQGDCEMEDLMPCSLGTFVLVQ
Summary of the method: as §1

[7] = molecular target: T7, scanMAX Kinase assay panel (Homo sapiens, UniProt Q96PY6); conditions: NEK1; 1 uM; read-out: Percent Control (%)
T7 construct: purchased DiscoverX
T7 sequence (Q96PY6 1-1258): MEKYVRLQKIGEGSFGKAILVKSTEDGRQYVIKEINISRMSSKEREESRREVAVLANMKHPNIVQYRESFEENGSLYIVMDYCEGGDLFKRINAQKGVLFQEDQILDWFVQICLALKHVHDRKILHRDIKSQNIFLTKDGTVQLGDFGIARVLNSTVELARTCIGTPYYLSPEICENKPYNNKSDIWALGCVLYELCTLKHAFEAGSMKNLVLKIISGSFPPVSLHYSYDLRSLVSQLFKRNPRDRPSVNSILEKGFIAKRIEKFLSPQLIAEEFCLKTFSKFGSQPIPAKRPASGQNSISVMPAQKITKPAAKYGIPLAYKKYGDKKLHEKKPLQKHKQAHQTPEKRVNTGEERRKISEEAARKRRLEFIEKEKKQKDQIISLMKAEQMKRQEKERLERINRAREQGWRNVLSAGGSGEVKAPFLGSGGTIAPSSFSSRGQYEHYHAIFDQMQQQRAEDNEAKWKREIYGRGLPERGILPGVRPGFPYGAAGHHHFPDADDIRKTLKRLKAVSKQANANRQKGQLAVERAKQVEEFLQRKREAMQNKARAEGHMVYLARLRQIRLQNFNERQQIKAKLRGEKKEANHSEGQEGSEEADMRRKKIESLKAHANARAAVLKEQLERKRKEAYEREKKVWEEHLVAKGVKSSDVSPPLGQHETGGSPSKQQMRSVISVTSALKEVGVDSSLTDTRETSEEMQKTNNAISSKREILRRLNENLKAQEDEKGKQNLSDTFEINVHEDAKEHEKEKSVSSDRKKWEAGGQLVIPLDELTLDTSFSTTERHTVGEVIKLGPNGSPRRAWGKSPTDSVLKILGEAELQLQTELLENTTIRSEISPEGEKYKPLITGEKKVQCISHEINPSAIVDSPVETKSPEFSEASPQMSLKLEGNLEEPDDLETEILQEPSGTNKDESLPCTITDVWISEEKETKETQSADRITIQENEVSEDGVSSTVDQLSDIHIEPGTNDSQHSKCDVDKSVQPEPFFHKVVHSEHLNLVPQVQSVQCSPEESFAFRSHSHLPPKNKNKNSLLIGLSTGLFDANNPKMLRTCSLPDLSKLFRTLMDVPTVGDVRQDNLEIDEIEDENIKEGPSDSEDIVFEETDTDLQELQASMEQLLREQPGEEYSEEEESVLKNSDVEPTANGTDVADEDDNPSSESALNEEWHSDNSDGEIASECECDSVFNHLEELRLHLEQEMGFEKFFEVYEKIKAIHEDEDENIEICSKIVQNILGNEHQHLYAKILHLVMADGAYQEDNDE
Summary of the method: as §1

SMILES | remaining binding at 1 µM [1] [%] | remaining binding at 1 µM ([2]; RPS6KA4 (Kin.Dom.1-N-terminal)) [%] | remaining binding at 1 µM ([2]; RPS6KA4 (Kin.Dom.2-C-terminal)) [%] | remaining binding at 1 µM [3] [%] | remaining binding at 1 µM [4] [%] | remaining binding at 1 µM [5] [%] | remaining binding at 1 µM [6] [%] | remaining binding at 1 µM [7] [%]
Cc1ccc(C(=O)Nc2ccc(CN3CCN(C)CC3)c(C(F)(F)F)c2)cc1C#Cc1cnc2c(Nc3cnn(C)c3)cccn12 [Example 1, 4-methyl-3-((8-((1-methyl-1H-pyrazol-4-yl)amino)imidazo[1,2-a]pyridin-3-yl)ethynyl)-N-(4-((4-methylpiperazin-1-yl)methyl)-3-(trifluoromethyl)phenyl)benzamide] | 90 | 31 | 94 | 87 | 81 | 64 | 0 | 52
Cc1cn(-c2cc(NC(=O)c3ccc(C)c(C#Cc4cnc5c(Nc6cnn(C)c6)cccn45)c3)cc(C(F)(F)F)c2)cn1 [Example 12, 4-methyl-N-(3-(4-methyl-1H-imidazol-1-yl)-5-(trifluoromethyl)phenyl)-3-((8-((1-methyl-1H-pyrazol-4-yl)amino)imidazo[1,2-a]pyridin-3-yl)ethynyl)benzamide] | 100 | 85 | 100 | 79 | 77 | 86 | 5 | 96
Cc1ccc(NC(=O)C2(C(=O)Nc3ccc(F)cc3)CC2)cc1C#Cc1cnc2c(Nc3cnn(C(C)C)c3)cccn12 [Example 78] | 98 | 94 | 78 | 100 | 92 | 96 | 25 | 100
